“And” between values parts separate entries of the source, which are not always exact repeats. Identical values can stand only once. “Also recorded” adds a separate entry of the source. Marks after values point to notes of the source that are not given here.
Assays:
Type in all cases: cell-based, human
[1] = tested on: peripheral blood CD3+ T cells; assay: TCR/CD3 (anti-CD3) stimulated T cell proliferation, [3H]-thymidine incorporation
Method: (§1) Human peripheral blood CD3+ T cells were purified by negative selection from 50 ml of heparin-treated blood from normal healthy donors (Ullevaal University Hospital Blood Center, Oslo. Norway) or patients. Briefly, peripheral blood mononuclear cells were isolated by density gradient (Lymphoprep, NycoMed, Oslo, Norway) centrifugation followed by negative selection using monodisperse magnetic beads directly coated with antibodies to CD14 and CD19 and rat anti-mouse IgG beads coated with antibodies to CD56 and a magnet. Magnetic beads were all from Dynal (Oslo, Norway, cat. no. 111.12, 111.04, and 110.11. respectively) whereas anti-CD56 antibody was from Pharmingen (San Diego, Calif., cat. no. 31660.d). All steps were performed at 4° C.
as §1, with “Peripheral blood” for “Human peripheral blood”, “Center, Oslo,” for “Center, Oslo.”, “selection using,” for “selection using”, “and 110.11,” for “and 110.11.”, “Calif., eat.” for “Calif., cat.”
Proliferation assays were performed by incubation of 0.75×10^6 CM+ T cells/ml in a 100 μl volume in that-bottom 96-well microtiter plates. Activation was achieved by subsequent addition of monodisperse magnetic beads coated with sheep anti-mouse IgG (Dynal. cat. no. 110.02) at a cell:bead ratio of 1:1 followed by addition of antiCD3 (clone SpvT3b) at a final dilution of 1:125,000 for the experiments shown. The optimal concentration of antibody was titrated carefully in the initial setup and parallel experiments at several different dilutions of antibody was always performed. Proliferation was analyzed by incubating, cells for 72 hours during which [^3H]thymidine was included for the last 16 hours. Cells were washed and harvested onto filters using a Scatron harvester (Suffolk, UK) and subsequently analyzed by β-scintillation counting. cAMP analogs, when used, were added 30 min prior to activation by addition of […] antibodies. 8-CPT-cAMP was from Sigorna (St. Louis, Mo.) and Sp- and Rp-8-Br-cAMPS were from BioLog Life Science Company (Bremen, Germany) and were all dissolved to concentrations of 4 to 10 mM in PBS and concentrations calculated using the extinction coefficients given by the manufacturer.

PBMC = assay: anti-CD3 stimulated proliferation of PBMC
Method: Whereas more than 100% increase in anti-CD3 induced lymphocyte proliferation was found in 7 of the CVI patients, 5 of the patients had less than 40% increase in proliferation when the cAMP antagonist was added to cells in vitro.

CD4+ T lymphocytes = assay: BrdU incorporation (DNA synthesis) by flow cytometry, CD4+ subset
Method: (§2) We next, by flow cytometry analysis of BrdU incorporation, examined anti-CD3 stimulated T lymphocyte DNA synthesis in the presence and absence of Rp-8-Br-cAMPS in subsets of CD4^+ and CD8^+ T lymphocytes in 8 CVI patients with impaired lymphocyte function and 7 controls. In CVI patients there was a significant increase in percent of BrdU^+ CD4^+ T lymphocytes when cAMP antagonist was added to cell culture [55.8 (40.7–77.0)% versus 69.6 (50.5–90.0)%, without and with antagonist, respectively, P<0.03]. In most patients the maximal increase was found at the highest concentration of Rp-8-Br-cAMPS (1000 μM).

CD8+ T lymphocytes = assay: BrdU incorporation (DNA synthesis) by flow cytometry, CD8+ subset; conditions: CVI patients and controls
Method: as §2

IL-2 = IL-2 levels in supernatants from anti-CD3 stimulated T lymphocytes (ELISA)
Method: After 20 h of culture, cellfree supernatants were harvested and stored at −80° C. until analysis. The IL-2 levels in supernatants were determined by an ELISA ([…], Minneapolis, Minn.).

IL-2 receptor = IL-2 receptor binding in anti-CD3 stimulated T cells (flow cytometry)
[2] = median in 7 CVI patients, 1000 μM
[3] = median in 8 healthy controls, most pronounced effect at 100 μM

Nc1ncnc2c1nc(Br)n2C1OC2COP(O)(=S)OC2C1O (stereo not drawn) [Rp-8-Br-cAMPS, Rp-8-Bromo-cAMP-phosphorothioate]
Proliferation level relative to levels in healthy controls ([1]; CVI patients' T cells with Rp-8-Br-cAMPS): ~25%
IL-2 concentration with enhancing effect comparable to that of cAMP antagonist ([1]; CVI patients, FIG. 7): ~15 ng/mL
Combined enhancing effects of Rp-8-Br-cAMPS and IL-2 on T lymphocyte proliferation ([1]; CVI patients, 1000 μM Rp-8-Br-cAMPS with IL-2): additive
Increase in proliferation by Rp-8-Br-cAMPS Fold increase compared to untreated ([1]; T cells from HIV+ asymptomatic patients, n = 8, median (25 to 75% range)): 1.50(1.29–1.73)^b fold
Increase in proliferation by Rp-8-Br-cAMPS Fold increase compared to untreated ([1]; T cells from HIV+ symptomatic patients, n = 10, median (25 to 75% range)): 1.62(1.48–2.00)^w fold
Increase in TCR/CD3-induced proliferation by antagonist alone ([1]; T cells from HIV-infected patients, at higher concentrations, FIG. 3D): more than 2 fold
Reversal of Sp-8-Br-cAMPS inhibition of proliferation by complementary antagonist ([1]; T cells from a HIV-infected patient, FIG. 3C): further increased the proliferation above the levels in untreated cells
Reversal of Sp-8-Br-cAMPS inhibition of proliferation by complementary antagonist ([1]; T cells from normal blood donors / healthy controls, increasing concentrations): almost completely reversed
Increase in proliferation by Rp-8-Br-cAMPS Fold increase compared to untreated ([1]; T cells from normal controls, n = 8, median (25 to 75% range)): 1.01(0.93–1.14) fold
Increase in proliferation by Rp-8-Br-cAMPS Fold increase compared to untreated ([1]; T cells from patients on triple combination therapy, n = 9, median (25 to 75% range)): 1.53(1.11–1.77)^o fold
Increase in proliferation by Rp-8-Br-cAMPS (fold increase) ([1]; T cells of individual CVI patients #1-#7): 1.73 fold and 2.10 fold and 1.87 fold and 1.34 fold and 1.37 fold and 2.45 fold and 3.67 fold
Increase in proliferation by Rp-8-Br-cAMPS Fold increase compared to untreated ([1]; T cells of individual HIV-infected patients #1-#18 without protease inhibitor therapy (Table 2a)): 2.81 fold and 2.02 fold and 2.73 fold and 1.48 fold and 1.77 fold and 1.96 fold and 1.5 fold and 1.79 fold and 1.74 fold and 1.3 fold and 1.49 fold and 1.43 fold and 1.46 fold and 1.67 fold and 1.6 fold and 1.27 fold and 1.39 fold and 1.16 fold
Increase in proliferation by Rp-8-Br-cAMPS Fold increase compared to untreated ([1]; T cells of individual patients #1-#9 receiving highly active antiretroviral therapy (Table 2b)): 2.79 fold and 2.65 fold and 1.77 fold (2×) and 1.53 fold and 1.04 fold and 1.52 fold and 0.98 fold and 1.11 fold
Increase in proliferation by Rp-8-Br-cAMPS (fold increase) ([1]; median in 7 CVI patients): 1.87^+ fold
Increase in proliferation by Rp-8-Br-cAMPS (fold increase) ([1]; median in 8 healthy controls): 1.01 fold
Effect of antagonist alone on stimulated proliferation ([1]; normal T cells / healthy controls): No increased T cell proliferation; also recorded: did not alter proliferation; also recorded: did not further enhance T cell proliferation
Increase in anti-CD3 stimulated proliferation ([1]; purified T cells, 3 of 7 CVI patients): > 100%
Increase in anti-CD3 induced lymphocyte proliferation (PBMC; 5 of the 20 CVI patients): less than 40%
Increase in anti-CD3 induced lymphocyte proliferation (PBMC; 7 of the 20 CVI patients): more than 100%
Effect on anti-CD3 stimulated lymphocyte proliferation (PBMC; CVI group): significant and concentration-dependent improvement
Effect on anti-CD3 stimulated lymphocyte proliferation (PBMC; normal blood donors): did not significantly alter proliferation
percent of BrdU+ CD4+ T lymphocytes (CD4+ T lymphocytes; 8 CVI patients, with antagonist (without: 55.8 (40.7–77.0)%), maximal mostly at 1000 μM): 69.6 (50.5–90.0) %
Effect on DNA synthesis in CD4+ lymphocytes (CD4+ T lymphocytes; healthy controls): No effect
Change in percent of BrdU+ CD8+ cells (CD8+ T lymphocytes): no significant increase
Effect on IL-2 levels in supernatants (IL-2; T lymphocytes from CVI patients): marked and concentration-dependent increase
Increase in IL-2 level by Rp-8-Br-cAMPS (fold increase) (IL-2; individual CVI patients #1-#7, 1000 μM, 20 h culture): 4.50 fold and 4.37 fold and 2.66 fold and 2.49 fold and 2.34 fold and 1.89 fold and 1.77 fold
Highest IL-2 level when adding Rp-8-Br-cAMPS (IL-2; individual CVI patients #1-#7, highest at 1000 μM, 20 h culture): 144 pg/mL and 284 pg/mL and 210 pg/mL and 249 pg/mL and 262 pg/mL and 246 pg/mL and 232 pg/mL
Highest IL-2 level when adding Rp-8-Br-cAMPS (IL-2; [2]): 246^+ pg/mL
Increase in IL-2 level by Rp-8-Br-cAMPS (fold increase) (IL-2; [2]): 2.50^+ fold
Highest IL-2 level when adding Rp-8-Br-cAMPS (IL-2; [3]): 799 pg/mL
Increase in IL-2 level by Rp-8-Br-cAMPS (fold increase) (IL-2; [3]): 1.28 fold
Effect on IL-2 receptor binding (IL-2 receptor; CD4+ lymphocytes from CVI patients): moderate but significant increase
Effect on IL-2 receptor binding (IL-2 receptor; cells from healthy controls): No such increase
